Assay results published in ChEMBL document CHEMBL1158420, “Synthesis, spectral, crystal and antimicrobial studies of biologically potent oxime ethers of nitrogen, oxygen and sulfur heterocycles” (2009).
≈ marks a conversion by molar mass, not a printed value.

Tests used:
Rhizopus [1] = assay: Ratio of MIC for drug to MIC for Amphotericin B against Rhizopus sp.; format: functional
Pseudomonas aeruginosa [2] = assay: Ratio of MIC for drug to MIC for Ciprofloxacin against Pseudomonas aeruginosa; format: functional
Aspergillus niger [3] = assay: Ratio of MIC for drug to MIC for Amphotericin B against Aspergillus niger; format: functional
Escherichia coli [4] = assay: Antibacterial activity against Escherichia coli by twofold dilution method; format: functional; details: Escherichia coli; read-out: MIC
Staphylococcus aureus [5] = assay: Antibacterial activity against Staphylococcus aureus by twofold dilution method; format: functional; details: Staphylococcus aureus; read-out: MIC
Cryptococcus neoformans [6] = assay: Ratio of MIC for drug to MIC for Amphotericin B against Cryptococcus neoformans; format: functional
Candida = assay: Antifungal activity against Candida 51 by twofold dilution method; format: functional; details: Candida, 51; read-out: MIC
Candida albicans [7] = assay: Ratio of MIC for drug to MIC for Amphotericin B against Candida albicans; format: functional
Escherichia coli [8] = assay: Ratio of MIC for drug to MIC for Ciprofloxacin against Escherichia coli; format: functional
Rhizopus [9] = assay: Antifungal activity against Rhizopus sp. by twofold dilution method; format: functional; details: Rhizopus; read-out: MIC
Pseudomonas aeruginosa [10] = assay: Antibacterial activity against Pseudomonas aeruginosa by twofold dilution method; format: functional; details: Pseudomonas aeruginosa; read-out: MIC
Aspergillus flavus [11] = assay: Antifungal activity against Aspergillus flavus by twofold dilution method; format: functional; details: Aspergillus flavus; read-out: MIC
Candida albicans [12] = assay: Antifungal activity against Candida albicans by twofold dilution method; format: functional; details: Candida albicans; read-out: MIC
Aspergillus flavus [13] = assay: Ratio of MIC for drug to MIC for Amphotericin B against Aspergillus flavus; format: functional
Cryptococcus neoformans [14] = assay: Antifungal activity against Cryptococcus neoformans by twofold dilution method; format: functional; details: Cryptococcus neoformans; read-out: MIC
[15] = system: Salmonella enterica subsp. enterica; assay: Antibacterial activity against Salmonella typhi by twofold dilution method; format: functional, Salmonella enterica subsp. enterica serovar Typhi; details: Salmonella enterica; read-out: MIC
Aspergillus niger [16] = assay: Antifungal activity against Aspergillus niger by twofold dilution method; format: functional; details: Aspergillus niger; read-out: MIC
Staphylococcus aureus [17] = assay: Ratio of MIC for drug to MIC for Ciprofloxacin against Staphylococcus aureus; format: functional
[18] = system: Salmonella enterica subsp. enterica; assay: Ratio of MIC for drug to MIC for Ciprofloxacin against Salmonella typhi; format: functional, Salmonella enterica subsp. enterica serovar Typhi

SMILES	Ratio (Rhizopus [1])	Ratio (Pseudomonas aeruginosa [2])	Ratio (Aspergillus niger [3])	MIC (Escherichia coli [4])	MIC (Staphylococcus aureus [5])	Ratio (Cryptococcus neoformans [6])	MIC (Candida)	Ratio (Candida albicans [7])	Ratio (Escherichia coli [8])	MIC (Rhizopus [9])	MIC (Pseudomonas aeruginosa [10])	MIC (Aspergillus flavus [11])	MIC (Candida albicans [12])	Ratio (Aspergillus flavus [13])	MIC (Cryptococcus neoformans [14])	MIC [15]	MIC (Aspergillus niger [16])	Ratio (Staphylococcus aureus [17])	Ratio [18]
Cc1ccc(C2NC(c3ccc(C)cc3)C(C)C(=NOCc3ccccc3)C2C)cc1 (stereo unspecified)	2	4	2	12.5 µg/mL (≈ 30.3 µM)	6.25 µg/mL (≈ 15.1 µM)	2	6.25 µg/mL (≈ 15.1 µM)	2	4	12.5 µg/mL (≈ 30.3 µM)	25 µg/mL (≈ 60.6 µM)	25 µg/mL (≈ 60.6 µM)	50 µg/mL (≈ 121 µM)	2	50 µg/mL (≈ 121 µM)	50 µg/mL (≈ 121 µM)	50 µg/mL (≈ 121 µM)	–	–
CC1C(=NOCc2ccccc2)C(C)C(c2ccc(Cl)cc2)NC1c1ccc(Cl)cc1 (stereo unspecified)	–	4	–	12.5 µg/mL (≈ 27.6 µM)	6.25 µg/mL (≈ 13.8 µM)	–	25 µg/mL (≈ 55.1 µM)	–	2	50 µg/mL (≈ 110 µM)	6.25 µg/mL (≈ 13.8 µM)	25 µg/mL (≈ 55.1 µM)	25 µg/mL (≈ 55.1 µM)	–	25 µg/mL (≈ 55.1 µM)	25 µg/mL (≈ 55.1 µM)	25 µg/mL (≈ 55.1 µM)	2	2
